Consider ten compounds from ChEMBL document CHEMBL1201862, “PubChem BioAssay data set” (2004).

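Five compound concentrations were applied to cells in 96-well plates for 48 hours; endpoints were derived by simple linear interpolation of the resulting dose-response curve. GI50: concentration for 50% inhibition of growth.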 The source made the active and inactive calls. Rule as the data show it: active = GI50 up to about 1.1 µM and inactive = higher.

Some test systems named below: OVCAR-4; HCT-15; NCI/ADR-RES; EKVX; MCF7; ACHN; IGROV-1; NCI-H23; HCT-116; UACC-257; HT-29; Malme-3M; RPMI-8226; CAKI-1; SNB-75; M14; DU-145; COLO 205; MOLT-4; CCRF-CEM.
What all share (assay): NCI anticancer screen, dose series, 48 h

Turning to `CC(C)OC1OC(CO)C(O)CC1n1cc(F)c(=O)[nH]c1=O` (stereo not drawn), the GI50 was > 100 µM (inactive) in the experiment with OVCAR-4; over 100 µM with HCT-15; > 100 µM (inactive) in the experiment on NCI/ADR-RES; > 100 µM (inactive) in the experiment on EKVX; 46 µM (inactive) in the experiment on MCF7; > 100 µM (inactive) in the experiment with ACHN. Also, the GI50 in the experiment on IGROV-1 was > 100 µM (inactive); in the experiment with NCI-H23, > 100 µM (inactive); in the experiment with HCT-116, > 100 µM (inactive); with UACC-257 it was > 100 µM (inactive); in the experiment with HT-29 it was > 100 µM (inactive); in the experiment with Malme-3M it was 86.1 µM (inactive). For the same compound, the GI50 in the experiment with RPMI-8226 was 39.4 µM (inactive); in the experiment with CAKI-1, 24.6 µM (inactive); in the experiment with SNB-75, > 100 µM (inactive); with M14 it was > 100 µM (inactive); with DU-145, > 100 µM (inactive); in the experiment on COLO 205 it was > 100 µM (inactive).
For `CCOc1ccccc1/N=N/C1C(=O)N(C(=O)CC(=O)Nc2ccccc2Cl)N=C1C` (stereo not drawn), the GI50 in the experiment with MOLT-4 was > 100 µM (inactive); in the experiment with OVCAR-4, 71 µM (inactive); in the experiment on HCT-15, 26.9 µM; in the experiment with CCRF-CEM, 68.7 µM (inactive); in the experiment on NCI/ADR-RES, 89.3 µM (inactive); with EKVX, 3.86 µM (inactive). In addition, the GI50 with MCF7 was > 100 µM (inactive); with ACHN it was > 100 µM (inactive); in the experiment with IGROV-1, 64.6 µM (inactive); in the experiment with NCI-H23 it was > 100 µM (inactive); in the experiment with HCT-116, 87.3 µM (inactive); with UACC-257, > 10 µM (inactive). Also, the GI50 in the experiment with HT-29 was > 100 µM (inactive); in the experiment on Malme-3M it was > 100 µM (inactive); in the experiment on RPMI-8226, 27.2 µM (inactive); in the experiment with CAKI-1, > 100 µM (inactive); in the experiment with SNB-75, 42.2 µM (inactive); in the experiment with M14, > 100 µM (inactive). Moreover, the GI50 in the experiment with DU-145 and in the experiment on COLO 205 was > 100 µM (inactive) throughout.
Regarding `COc1ccc(/N=N/c2ccc3oc(=O)c(C(=O)Nc4ccccc4C)cc3c2)cc1`, the GI50 was > 10 µM (inactive) with MOLT-4; > 10 µM (inactive) in the experiment on OVCAR-4; over 10 µM in the experiment on HCT-15; > 10 µM (inactive) in the experiment on NCI/ADR-RES; > 10 µM (inactive) with EKVX; > 10 µM (inactive) with MCF7. Besides, the GI50 is 8.3 µM (inactive) in the experiment with ACHN; > 10 µM (inactive) in the experiment on IGROV-1; > 10 µM (inactive) with NCI-H23; > 10 µM (inactive) in the experiment with UACC-257; > 10 µM (inactive) in the experiment with HT-29; > 10 µM (inactive) in the experiment on Malme-3M. Besides, the GI50 in the experiment on RPMI-8226 is > 10 µM (inactive); in the experiment with CAKI-1 it was > 10 µM (inactive); in the experiment on SNB-75 it was 4.69 µM (inactive); in the experiment on M14, > 10 µM (inactive); in the experiment with DU-145 it was > 10 µM (inactive); in the experiment with COLO 205, > 10 µM (inactive).
As to `O=C1C=C(NCCc2ccc(O)cc2)C(=O)C=C1NCCc1ccc(O)cc1`, the GI50 with MOLT-4 is 46.5 µM (inactive); with OVCAR-4 it was > 100 µM (inactive); in the experiment on HCT-15, over 100 µM; with CCRF-CEM, 46.9 µM (inactive); with NCI/ADR-RES, > 100 µM (inactive); with EKVX, > 100 µM (inactive). Besides, the GI50 in the experiment with MCF7 is > 100 µM (inactive); in the experiment on ACHN, > 100 µM (inactive); with IGROV-1, > 100 µM (inactive); with NCI-H23, > 100 µM (inactive); with HCT-116 it was 50 µM (inactive); in the experiment with UACC-257, > 100 µM (inactive). In addition, the GI50 with HT-29 is > 100 µM (inactive); with Malme-3M, > 100 µM (inactive); with RPMI-8226, > 100 µM (inactive); in the experiment with CAKI-1, > 100 µM (inactive); in the experiment with SNB-75, 19.6 µM (inactive); in the experiment with DU-145 it was > 100 µM (inactive). The GI50 in the experiment on COLO 205 is > 100 µM (inactive).
On to `COC(=O)c1cc(NC(=O)c2cc(NC(=O)c3cc([N+](=O)[O-])cn3C)cn2C)cn1C`, for which the GI50 is 29.8 µM (inactive) in the experiment on MOLT-4; 40 µM (inactive) in the experiment with OVCAR-4; 82 µM in the experiment on HCT-15; > 100 µM (inactive) with CCRF-CEM; 61.4 µM (inactive) with NCI/ADR-RES; 34.1 µM (inactive) in the experiment with EKVX. Besides, the GI50 is > 100 µM (inactive) with MCF7; 66.1 µM (inactive) with ACHN; 0.0147 µM (active) with IGROV-1; 30.8 µM (inactive) in the experiment with NCI-H23; 43.4 µM (inactive) in the experiment with HCT-116; > 100 µM (inactive) in the experiment with HT-29. The GI50 in the experiment with Malme-3M was 26.9 µM (inactive); in the experiment on RPMI-8226 it was 29.4 µM (inactive); in the experiment on CAKI-1 it was 69.2 µM (inactive); in the experiment on SNB-75 it was > 100 µM (inactive); in the experiment with M14 it was > 100 µM (inactive); in the experiment on DU-145, > 100 µM (inactive). For the same compound, in the experiment with COLO 205, the GI50 was 44.4 µM (inactive).
In the case of `CC1(C)OCC(C2OC(N3O[C@H](CI)C[C@@H]3c3ccccc3)C3OC(C)(C)OC23)O1` (stereo partly drawn), the GI50 was > 100 µM (inactive) with OVCAR-4; over 100 µM in the experiment with HCT-15; > 100 µM (inactive) with CCRF-CEM; > 100 µM (inactive) in the experiment on NCI/ADR-RES; > 100 µM (inactive) with EKVX; > 100 µM (inactive) in the experiment with MCF7. In addition, the GI50 was > 100 µM (inactive) in the experiment on ACHN; > 100 µM (inactive) in the experiment on IGROV-1; > 100 µM (inactive) in the experiment with NCI-H23; 61 µM (inactive) in the experiment on HCT-116; > 100 µM (inactive) in the experiment with UACC-257; 61.9 µM (inactive) with HT-29. In addition, the GI50 is > 100 µM (inactive) in the experiment with Malme-3M; 43 µM (inactive) with RPMI-8226; > 100 µM (inactive) in the experiment with CAKI-1; > 100 µM (inactive) in the experiment with SNB-75; 82 µM (inactive) in the experiment on M14; > 100 µM (inactive) in the experiment on DU-145. The GI50 in the experiment on COLO 205 was > 100 µM (inactive).
Take `Cn1c(=O)c2c(O)cc(N)nc2n(C)c1=O`: the GI50 in the experiment with MOLT-4, in the experiment with OVCAR-4, with CCRF-CEM, with NCI/ADR-RES, in the experiment on EKVX and with MCF7 was > 100 µM (inactive) in each case. In addition, the GI50 in the experiment with ACHN, in the experiment on IGROV-1, with NCI-H23, in the experiment on HCT-116, in the experiment on UACC-257 and with HT-29 was > 100 µM (inactive) throughout. The GI50 was > 100 µM (inactive) in the experiment with Malme-3M; > 100 µM (inactive) with RPMI-8226; 28.9 µM (inactive) with CAKI-1; > 100 µM (inactive) in the experiment with SNB-75; > 100 µM (inactive) in the experiment on M14; > 100 µM (inactive) in the experiment on DU-145. For the same compound, in the experiment with COLO 205, the GI50 is > 100 µM (inactive).
Turning to `CC(=O)Oc1c(N2CCCCC2)c(C(=O)c2ccccc2)c(O)c2ccn(N(C)C)c12`, the GI50 in the experiment with MOLT-4 was 0.736 µM (active); with OVCAR-4 it was 24.5 µM (inactive); in the experiment on HCT-15 it was 18 µM; in the experiment with CCRF-CEM it was 15.7 µM (inactive); in the experiment with NCI/ADR-RES, 15.7 µM (inactive); in the experiment on EKVX, 16.1 µM (inactive). The GI50 in the experiment with MCF7 was 10.5 µM (inactive); with ACHN, 18.5 µM (inactive); with NCI-H23, 18.9 µM (inactive); with HCT-116, 9.51 µM (inactive); with UACC-257, 16.8 µM (inactive); in the experiment on HT-29, 14.6 µM (inactive). The GI50 in the experiment on Malme-3M is 17.3 µM (inactive); in the experiment with RPMI-8226, 7.01 µM (inactive); in the experiment on CAKI-1, 15.4 µM (inactive); with SNB-75 it was 13.2 µM (inactive); with M14 it was 21.7 µM (inactive); in the experiment on DU-145 it was 21.8 µM (inactive). Besides, the GI50 in the experiment on COLO 205 is 16.7 µM (inactive).
As for `C[N+](C)(C)c1ccc(C(N)C(=O)O)cc1` (stereo not drawn), the GI50 was > 100 µM (inactive) with OVCAR-4; over 100 µM in the experiment on HCT-15; > 100 µM (inactive) in the experiment on CCRF-CEM; > 100 µM (inactive) in the experiment on NCI/ADR-RES; > 100 µM (inactive) with EKVX; > 100 µM (inactive) in the experiment with MCF7. Also, the GI50 in the experiment with ACHN, in the experiment on IGROV-1, in the experiment with NCI-H23, in the experiment with HCT-116, with UACC-257 and with HT-29 was > 100 µM (inactive) in each case. Besides, the GI50 in the experiment with Malme-3M, in the experiment on RPMI-8226, with CAKI-1, in the experiment with SNB-75, in the experiment with M14 and in the experiment with DU-145 was > 100 µM (inactive) each time. Further, in the experiment on COLO 205, the GI50 is > 100 µM (inactive).
Turning to `COc1ccc(-c2cc(-c3ccc(C)cc3)n(C3OC(COC(C)=O)C(OC(C)=O)C(OC(C)=O)C3OC(C)=O)c(=S)c2C#N)cc1` (stereo not drawn), the GI50 was > 100 µM (inactive) in the experiment on MOLT-4; 29.2 µM (inactive) in the experiment with OVCAR-4; over 100 µM in the experiment on HCT-15; > 100 µM (inactive) in the experiment on NCI/ADR-RES; > 100 µM (inactive) in the experiment with EKVX; > 100 µM (inactive) in the experiment on MCF7. For the same compound, the GI50 with ACHN, in the experiment with IGROV-1, with NCI-H23, in the experiment on HCT-116, in the experiment on HT-29 and in the experiment on Malme-3M was > 100 µM (inactive) throughout. The GI50 was > 100 µM (inactive) in the experiment with RPMI-8226; > 100 µM (inactive) in the experiment on CAKI-1; 27 µM (inactive) with SNB-75; > 100 µM (inactive) in the experiment with M14; > 100 µM (inactive) in the experiment with DU-145; > 100 µM (inactive) in the experiment on COLO 205.
